From patent publication US7109193B2, “Tricyclic diazepines tocolytic oxytocin receptor antagonists” (Wyeth, priority 2001, dated 2006)

target: T1, human oxytocin receptor (Homo sapiens, UniProt P30559); test: Oxytocin binding in Chinese Hamster Ovary cell membranes expressing human oxytocin receptors; conditions: 100 nM, CHO cell membranes, [3H]oxytocin, values without parentheses, read-out: OT % inhibition @ 100% nM
T1 construct: host or cells: CHO cells (pcDNA3.1 vector)
T1 sequence (P30559 1-389): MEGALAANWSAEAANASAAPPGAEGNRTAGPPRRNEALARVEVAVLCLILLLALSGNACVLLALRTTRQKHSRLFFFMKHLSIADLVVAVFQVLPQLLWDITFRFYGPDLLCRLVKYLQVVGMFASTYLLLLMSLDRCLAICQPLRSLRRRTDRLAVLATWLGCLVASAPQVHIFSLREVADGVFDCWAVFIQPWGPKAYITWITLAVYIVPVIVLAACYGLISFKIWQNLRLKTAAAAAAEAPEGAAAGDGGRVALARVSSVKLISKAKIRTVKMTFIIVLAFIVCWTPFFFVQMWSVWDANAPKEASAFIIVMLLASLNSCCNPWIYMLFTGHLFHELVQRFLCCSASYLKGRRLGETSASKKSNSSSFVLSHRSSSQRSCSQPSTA

Point of comparison: Cc1cc(C(=O)N2Cc3ccc(C(=O)N[C@H]4CN5CCC4CC5)n3Cc3ccccc32)ccc1-c1ccccc1C(F)(F)F [Example 301, N-[(3R)-1-Azabicyclo[2.2.2]oct-3-yl]-10-{[2-methyl-2′-(trifluoromethyl)[1,1′-biphenyl]-4-yl]carbonyl}-10,11-dihydro-5H-pyrrolo[2,1-c][1,4]benzodiazepine-3-carboxamide], inhibition at 0.1 µM 82%. Against it:
- COc1cc(C(=O)N2Cc3ccc(C(=O)n4ccnc4)n3Cc3ccccc32)ccc1-c1cccc2ccccc12 [Example 291, 1H-Imidazol-1-yl-{10-[3-methoxy-4-(1-naphthyl)benzoyl]-10,11-dihydro-5H-pyrrolo[2,1-c][1,4]benzodiazepin-3-yl}methanone] — lower, 32%
- COc1ccccc1-c1ccc(C(=O)N2Cc3ccc(C(=O)n4ccnc4)n3Cc3ccccc32)cc1C [Example 292, 1H-Imidazol-1-yl-{10-[(2′-methoxy-2-methyl[1,1′-biphenyl]-4-yl)carbonyl]-10,11-dihydro-5H-pyrrolo[2,1-c][1,4]benzodiazepin-3-yl}methanone] — lower, 69%
- COc1ccccc1-c1ccc(C(=O)N2Cc3ccc(C(=O)n4ccnc4)n3Cc3ccccc32)cc1OC [Example 293, {10-[(2,2′-Dimethoxy[1,1′-biphenyl]-4-yl)carbonyl]-10,11-dihydro-5H-pyrrolo[2,1-c][1,4]benzodiazepin-3-yl}(1H-imidazol-1-yl)methanone] — lower, 53%
- Cc1cc(C(=O)N2Cc3ccc(C(=O)n4ccnc4)n3Cc3ccccc32)ccc1-c1ccccc1C(F)(F)F [Example 294, 1H-Imidazol-1-yl(10-{[2-methyl-2′-(trifluoromethyl)[1,1′-biphenyl]-4-yl]carbonyl}-10,11-dihydro-5H-pyrrolo[2,1-c][1,4]benzodiazepin-3-yl)methanone] — lower, 54%
- COc1ccccc1-c1ccc(C(=O)N2Cc3ccc(C(=O)N[C@@H]4CN5CCC4CC5)n3Cc3ccccc32)cc1C [Example 295, N-[(3S)-1-Azabicyclo[2.2.2]oct-3-yl]-10-[(2′-methoxy-2-methyl[1,1′-biphenyl]-4-yl)carbonyl]-10,11-dihydro-5H-pyrrolo[2,1-c][1,4]benzodiazepine-3-carboxamide] — lower, 79%
- COc1ccccc1-c1ccc(C(=O)N2Cc3ccc(C(=O)N[C@H]4CN5CCC4CC5)n3Cc3ccccc32)cc1 [Example 296, N-[(3R)-1-Azabicyclo[2.2.2]oct-3-yl]-10-[(2′-methoxy[1,1′-biphenyl]-4-yl)carbonyl]-10,11-dihydro-5H-pyrrolo[2,1-c][1,4]benzodiazepine-3-carboxamide] — higher, 88%
- COc1cc(-c2ccccc2C)c(Cl)cc1C(=O)N1Cc2ccc(C(=O)N[C@@H]3CN4CCC3CC4)n2Cc2ccccc21 [Example 297, N-[(3S)-1-Azabicyclo[2.2.2]oct-3-yl]-10-[(6-chloro-3-methoxy-2′-methyl-[1,1′-biphenyl]-4-yl)carbonyl]-10,11-dihydro-5H-pyrrolo[2,1-c][1,4]benzodiazepine-3-carboxamide] — lower, 73%
- COc1ccccc1-c1ccc(C(=O)N2Cc3ccc(C(=O)N[C@H]4CN5CCC4CC5)n3Cc3ccccc32)cc1C [Example 298, N-[(3R)-1-Azabicyclo[2.2.2]oct-3-yl]-10-[(2′-methoxy-2-methyl[1,1′-biphenyl]-4-yl)carbonyl]-10,11-dihydro-5H-pyrrolo[2,1-c][1,4]benzodiazepine-3-carboxamide] — higher, 94%
- COc1ccccc1-c1ccc(C(=O)N2Cc3ccc(C(=O)N[C@H]4CN5CCC4CC5)n3Cc3ccccc32)cc1OC [Example 299, N-[(3R)-1-Azabicyclo[2.2.2]oct-3-yl]-10-[(2,2′-dimethoxy[1,1′-biphenyl]-4-yl)carbonyl]-10,11-dihydro-5H-pyrrolo[2,1-c][1,4]benzodiazepine-3-carboxamide] — higher, 86%
- COc1ccccc1-c1ccc(C(=O)N2Cc3ccc(C(=O)N[C@@H]4CN5CCC4CC5)n3Cc3ccccc32)cc1OC [Example 300, N-[(3S)-1-Azabicyclo[2.2.2]oct-3-yl]-10-[(2,2′-dimethoxy[1,1′-biphenyl]-4-yl)carbonyl]-10,11-dihydro-5H-pyrrolo[2,1-c][1,4]benzodiazepine-3-carboxamide] — lower, 72%
- COc1cccc(-c2cc(OC)c(C(=O)N3Cc4ccc(C(=O)N[C@@H](CCCCNC(=O)OC(C)(C)C)C(N)=O)n4Cc4ccccc43)cc2Cl)c1 [Example 302, tert-Butyl (5S)-6-amino-5-[({10-[(6-chloro-3,3′-dimethoxy[1,1′-biphenyl]-4-yl)carbonyl]-10,11-dihydro-5H-pyrrolo[2,1-c][1,4]benzodiazepin-3-yl}carbonyl)amino]-6-oxohexylcarbamate] — lower, 64%
- COc1ccccc1-c1ccc(C(=O)N2Cc3ccc(C(=O)N[C@@H](CCCCNC(=O)OC(C)(C)C)C(N)=O)n3Cc3ccccc32)cc1OC [Example 303, tert-Butyl (5S)-6-amino-5-[({10-[(2,2′-dimethoxy[1,1′-biphenyl]-4-yl)carbonyl]-10,11-dihydro-5H-pyrrolo[2,1-c][1,4]benzodiazepin-3-yl}carbonyl)amino]-6-oxohexylcarbamate] — lower, 66%
- COc1cc(-c2ccccc2C)c(Cl)cc1C(=O)N1Cc2ccc(C(=O)N[C@@H](CCCCNC(=O)OC(C)(C)C)C(N)=O)n2Cc2ccccc21 [Example 304, tert-Butyl (5S)-6-amino-5-[({10-[(6-chloro-3-methoxy-2′-methyl[1,1′-biphenyl]-4-yl)carbonyl]-10,11-dihydro-5H-pyrrolo[2,1-c][1,4]benzodiazepin-3-yl}carbonyl)amino]-6-oxohexylcarbamate] — lower, 74%
- COc1cc(C(=O)N2Cc3ccc(C(=O)N4CCN(C)CC4)n3Cc3ccccc32)ccc1-n1c(C)ccc1C [Example 306, {10-[4-(2,5-Dimethyl-1H-pyrrol-1-yl)-3-methoxybenzoyl]-10,11-dihydro-5H-pyrrolo[2,1-c][1,4]benzodiazepin-3-yl}(4-methyl-1-piperazinyl)methanone] — lower, 34%
- COc1cc(C(=O)N2Cc3ccc(C(=O)N4CCCN(C)CC4)n3Cc3ccccc32)ccc1-n1c(C)ccc1C [Example 307, {10-[4-(2,5-Dimethyl-1H-pyrrol-1-yl)-3-methoxybenzoyl]-10,11-dihydro-5H-pyrrolo[2,1-c][1,4]benzodiazepin-3-yl}(4-methyl-1,4-diazepan-1-yl)methanone] — lower, 30%
- COc1cc(C(=O)N2Cc3ccc(C(=O)NCCCN(C)C)n3Cc3ccccc32)ccc1-n1c(C)ccc1C [Example 308, N-[3-(Dimethylamino)propyl]-10-[4-(2,5-dimethyl-1H-pyrrol-1-yl)-3-methoxybenzoyl]-10,11-dihydro-5H-pyrrolo[2,1-c][1,4]benzodiazepine-3-carboxamide] — lower, 7%
- COc1cc(C(=O)N2Cc3ccc(C(=O)N(C)CCN(C)C)n3Cc3ccccc32)ccc1-n1c(C)ccc1C [Example 309, N-[2-(Dimethylamino)ethyl]-10-[4-(2,5-dimethyl-1H-pyrrol-1-yl)-3-methoxybenzoyl]-N-methyl-10,11-dihydro-5H-pyrrolo[2,1-c][1,4]benzodiazepine-3-carboxamide] — lower, 72%
